ChEMBL document CHEMBL1921749, “5-Lipoxygenase-activating protein (FLAP) inhibitors. Part 4: development of 3-[3-tert-butylsulfanyl-1-[4-(6-ethoxypyridin-3-yl)benzyl]-5-(5-methylpyridin-2-ylmethoxy)-1H-indol-2-yl]-2,2-dimethylpropionic acid (AM803), a potent, oral, once daily FLAP inhibitor” (J Med Chem, 2011)

Key:
[1] = biological target: Prostaglandin G/H synthase 1 (Homo sapiens, UniProt P23219); assay: Inhibition of COX1-mediated TXB2 production in human whole blood after 30 mins by competitive enzyme immunoassay
Cytochrome P450 2D6 = Cytochrome P450 2D6 (Homo sapiens, UniProt P10635); assay: Inhibition of human CYP2D6; format: ADME
Cytochrome P450 3A4 = Cytochrome P450 3A4 (Homo sapiens, UniProt P08684); assay: Time-dependent inhibition of CYP3A4 at 10 uM; format: ADME
[2] = biological target: T1, Arachidonate 5-lipoxygenase-activating protein (Homo sapiens, UniProt P20292); assay: Inhibition of FLAP in human whole blood assessed as inhibition of calcium ionophore A23187-induced LTB4 production preincubated for 15 mins by ELISA
T1 sequence (P20292 whole entry): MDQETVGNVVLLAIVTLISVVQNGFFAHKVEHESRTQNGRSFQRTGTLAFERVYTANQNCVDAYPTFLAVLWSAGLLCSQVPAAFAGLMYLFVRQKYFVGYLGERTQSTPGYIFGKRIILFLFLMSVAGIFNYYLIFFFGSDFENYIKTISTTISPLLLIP

Rattus norvegicus = assay: Antiinflammatory activity in rat assessed as inhibition of calcium ionophore A23187-induced LTB4 production in bronchoalveolar lavage fluid at 3 mg/kg, po administered 16 hrs prior to A23187 challenge; format: functional, Lung; design: scale not given: the % may be the effect or the level left
Leukotriene C4 synthase = biological target: T2, Leukotriene C4 synthase (Homo sapiens, UniProt Q16873); assay: Inhibition of LTC4 synthase
T2 sequence (Q16873 whole entry): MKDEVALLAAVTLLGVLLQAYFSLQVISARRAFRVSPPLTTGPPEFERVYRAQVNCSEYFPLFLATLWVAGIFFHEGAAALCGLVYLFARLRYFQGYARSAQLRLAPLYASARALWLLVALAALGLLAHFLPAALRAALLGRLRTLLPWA

[3] = biological target: T1, Arachidonate 5-lipoxygenase-activating protein; assay: Inhibition of FLAP in human peripheral leukocytes assessed as inhibition of calcium ionophore A23187-induced LTB4 production after 1 hr by ELISA in absence of human serum albumin; format: cell-based
[4] = Plasma protein binding in rat; format: ADME, cell-free; settings: read-out: PPB (converted)
[5] = biological target: T3, Arachidonate 5-lipoxygenase-activating protein (Rattus norvegicus, UniProt P20291); assay: Inhibition of FLAP in rat whole blood assessed as inhibition of calcium ionophore A23187-induced LTB4 production preincubated for 4 hrs by ELISA; format: tissue-based
T3 sequence (P20291 whole entry): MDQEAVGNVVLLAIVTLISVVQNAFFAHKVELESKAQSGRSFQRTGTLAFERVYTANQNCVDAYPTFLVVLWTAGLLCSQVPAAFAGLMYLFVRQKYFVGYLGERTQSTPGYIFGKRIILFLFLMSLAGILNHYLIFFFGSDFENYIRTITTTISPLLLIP

[6] = biological target: T4, Polyunsaturated fatty acid 5-lipoxygenase (Homo sapiens, UniProt P09917); assay: Inhibition of 5-lipoxygenase
T4 sequence (P09917 whole entry): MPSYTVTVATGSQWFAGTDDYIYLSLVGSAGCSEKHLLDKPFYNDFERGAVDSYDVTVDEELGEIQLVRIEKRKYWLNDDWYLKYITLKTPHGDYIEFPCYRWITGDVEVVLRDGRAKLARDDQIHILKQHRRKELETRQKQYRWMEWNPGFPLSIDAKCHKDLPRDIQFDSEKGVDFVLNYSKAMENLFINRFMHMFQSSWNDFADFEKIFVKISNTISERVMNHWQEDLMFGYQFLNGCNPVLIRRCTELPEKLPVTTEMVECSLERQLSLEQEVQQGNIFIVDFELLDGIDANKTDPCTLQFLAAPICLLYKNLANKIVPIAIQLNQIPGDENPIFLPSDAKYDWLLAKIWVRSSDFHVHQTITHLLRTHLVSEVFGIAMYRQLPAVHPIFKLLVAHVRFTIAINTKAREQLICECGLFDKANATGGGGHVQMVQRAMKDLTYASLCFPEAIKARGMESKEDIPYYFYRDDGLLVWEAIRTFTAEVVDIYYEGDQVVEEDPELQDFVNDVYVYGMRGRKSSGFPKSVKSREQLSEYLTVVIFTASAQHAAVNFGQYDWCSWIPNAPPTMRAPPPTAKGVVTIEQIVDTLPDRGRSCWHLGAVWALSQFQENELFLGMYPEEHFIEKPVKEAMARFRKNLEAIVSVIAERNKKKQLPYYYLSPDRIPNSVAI

Cytochrome P450 2C9 = Cytochrome P450 2C9 (Homo sapiens, UniProt P11712); assay: Inhibition of human CYP2C9; format: ADME
[7] = biological target: T1, Arachidonate 5-lipoxygenase-activating protein; assay: Inhibition of FLAP in human whole blood assessed as inhibition of calcium ionophore A23187-induced LTB4 production preincubated for 5 hrs by ELISA
[8] = Plasma protein binding in human; format: ADME, cell-free; settings: read-out: PPB (converted)
[9] = biological target: T1, Arachidonate 5-lipoxygenase-activating protein; assay: Inhibition of FLAP in human peripheral leukocytes assessed as inhibition of calcium ionophore A23187-induced LTB4 production after 10 mins by ELISA in presence of 0.5% human serum albumin; format: cell-based
[10] = Plasma concentration in rat at 3 mg/kg, po after 16 hrs; format: ADME, organism-based; design: dose 3 mg/kg, route oral
Plasma = assay: Plasma protein binding in dog; format: ADME, cell-free, Canis lupus familiaris

Sequence of Prostaglandin G/H synthase 1 (P23219 whole entry): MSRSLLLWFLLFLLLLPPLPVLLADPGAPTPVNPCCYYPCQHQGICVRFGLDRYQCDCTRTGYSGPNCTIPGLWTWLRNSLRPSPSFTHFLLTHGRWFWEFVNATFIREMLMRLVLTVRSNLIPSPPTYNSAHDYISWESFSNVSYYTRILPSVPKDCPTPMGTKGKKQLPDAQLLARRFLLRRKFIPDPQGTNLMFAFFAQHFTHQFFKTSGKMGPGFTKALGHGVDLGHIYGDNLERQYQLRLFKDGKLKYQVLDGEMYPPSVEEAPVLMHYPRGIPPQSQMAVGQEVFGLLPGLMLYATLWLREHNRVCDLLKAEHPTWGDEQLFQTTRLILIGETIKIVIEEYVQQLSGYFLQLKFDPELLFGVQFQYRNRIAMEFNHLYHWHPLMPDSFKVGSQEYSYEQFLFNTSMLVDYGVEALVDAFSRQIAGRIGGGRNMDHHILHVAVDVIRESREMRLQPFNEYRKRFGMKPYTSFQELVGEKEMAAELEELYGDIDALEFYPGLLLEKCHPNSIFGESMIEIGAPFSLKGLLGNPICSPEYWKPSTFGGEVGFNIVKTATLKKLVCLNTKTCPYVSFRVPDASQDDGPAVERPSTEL
Sequence of Cytochrome P450 2C9 (P11712 whole entry): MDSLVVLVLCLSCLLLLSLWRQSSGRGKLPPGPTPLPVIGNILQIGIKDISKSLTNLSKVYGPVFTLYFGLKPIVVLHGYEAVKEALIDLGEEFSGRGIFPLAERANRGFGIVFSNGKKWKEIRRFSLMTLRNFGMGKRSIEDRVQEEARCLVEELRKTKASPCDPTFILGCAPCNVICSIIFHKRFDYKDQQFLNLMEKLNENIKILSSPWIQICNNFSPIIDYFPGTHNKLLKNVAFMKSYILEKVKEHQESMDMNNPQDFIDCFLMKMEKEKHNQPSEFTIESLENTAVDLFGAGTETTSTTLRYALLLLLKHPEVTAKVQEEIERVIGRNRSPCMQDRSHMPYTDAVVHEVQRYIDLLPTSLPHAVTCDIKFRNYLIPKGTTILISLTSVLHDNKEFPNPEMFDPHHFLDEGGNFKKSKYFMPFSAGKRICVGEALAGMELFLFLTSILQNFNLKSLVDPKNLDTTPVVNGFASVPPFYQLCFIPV
Sequence of Cytochrome P450 2D6 (P10635 whole entry): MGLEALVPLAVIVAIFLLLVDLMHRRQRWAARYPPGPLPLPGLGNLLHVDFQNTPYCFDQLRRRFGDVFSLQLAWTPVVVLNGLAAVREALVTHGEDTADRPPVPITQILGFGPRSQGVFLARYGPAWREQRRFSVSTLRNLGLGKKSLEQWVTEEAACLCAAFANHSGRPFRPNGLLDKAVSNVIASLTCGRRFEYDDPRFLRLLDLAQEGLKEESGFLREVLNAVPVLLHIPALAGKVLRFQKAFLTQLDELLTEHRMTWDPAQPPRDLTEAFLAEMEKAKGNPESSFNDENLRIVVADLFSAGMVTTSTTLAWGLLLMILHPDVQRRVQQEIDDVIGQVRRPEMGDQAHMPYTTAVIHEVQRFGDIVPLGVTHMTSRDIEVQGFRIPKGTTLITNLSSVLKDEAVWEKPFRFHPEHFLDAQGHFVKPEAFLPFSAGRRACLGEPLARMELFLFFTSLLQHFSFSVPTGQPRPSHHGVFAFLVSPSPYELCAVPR
Sequence of Cytochrome P450 3A4 (P08684 whole entry): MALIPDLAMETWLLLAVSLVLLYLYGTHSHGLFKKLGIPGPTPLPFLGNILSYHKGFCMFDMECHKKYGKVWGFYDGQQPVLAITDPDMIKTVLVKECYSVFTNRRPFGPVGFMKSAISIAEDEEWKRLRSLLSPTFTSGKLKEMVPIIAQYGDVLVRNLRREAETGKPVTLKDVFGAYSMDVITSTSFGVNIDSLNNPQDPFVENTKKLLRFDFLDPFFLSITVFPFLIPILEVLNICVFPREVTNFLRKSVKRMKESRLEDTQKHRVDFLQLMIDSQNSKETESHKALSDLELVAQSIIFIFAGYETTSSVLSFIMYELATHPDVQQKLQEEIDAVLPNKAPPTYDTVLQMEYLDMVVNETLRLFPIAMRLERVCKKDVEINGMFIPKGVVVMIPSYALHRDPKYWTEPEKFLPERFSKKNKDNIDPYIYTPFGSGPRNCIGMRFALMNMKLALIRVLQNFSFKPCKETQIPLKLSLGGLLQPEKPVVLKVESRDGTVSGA

IC50 [1]: 58 µM
IC50 (Cytochrome P450 2D6): > 40 µM
TDI (Cytochrome P450 3A4): Not Active
IC50 [2]: 506 nM
IC50 (Leukotriene C4 synthase): 36 µM
IC50 [3]: 1 nM
fraction unbound [4]: 0.002
IC50 [5]: 16 nM
IC50 [6]: 20 µM
IC50 (Cytochrome P450 2C9): > 50 µM
IC50 [7]: 76 nM
fraction unbound [8]: 0.005
IC50 [9]: 26 nM
concentration at 16 h [10]: 3 nM
PPB (Plasma): 99.7%
SMILES: CCOc1ccc(-c2ccc(Cn3c(CC(C)(C)C(=O)O)c(SC(C)(C)C)c4cc(OCc5ccc(C)cn5)ccc43)cc2)cn1 [FIBOFLAPON]
Activity (Rattus norvegicus): 86%
